Assay results: ChEMBL document CHEMBL1201862, “PubChem BioAssay data set” (2004)
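A five-concentration, 48-hour dose response in 96-well plates underlies each endpoint, interpolated linearly between surrounding concentrations. Abbreviation: GI50, concentration required for 50% inhibition of growth.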 Activity calls are given as the source filed them. Rule as the data show it: active = GI50 up to about 1.1 µM and inactive = higher.

Experiments:
Assay in all cases: NCI-60 cell line screen, 48 h
786-0 = tested on: 786-0
A549 = tested on: A549
ACHN = tested on: ACHN
BT-549 = tested on: BT-549
CCRF-CEM = tested on: CCRF-CEM
COLO 205 = tested on: COLO 205
DU-145 = tested on: DU-145
EKVX = tested on: EKVX
HCC 2998 = tested on: HCC 2998
HCT-116 = tested on: HCT-116
HCT-15 = tested on: HCT-15
HOP-62 = tested on: HOP-62
HOP-92 = tested on: HOP-92
HT-29 = tested on: HT-29
IGROV-1 = tested on: IGROV-1
K562 = tested on: K562
KM12 = tested on: KM12
LOX IMVI = tested on: LOX IMVI
M14 = tested on: M14
MCF7 = tested on: MCF7
MDA-MB-231 = tested on: MDA-MB-231
MDA-MB-435 = tested on: MDA-MB-435
MDA-N = tested on: MDA-N
MOLT-4 = tested on: MOLT-4
NCI-H23 = tested on: NCI-H23
NCI-H522 = tested on: NCI-H522
NCI/ADR-RES = tested on: NCI/ADR-RES
OVCAR-3 = tested on: OVCAR-3
OVCAR-4 = tested on: OVCAR-4
OVCAR-5 = tested on: OVCAR-5
OVCAR-8 = tested on: OVCAR-8
PC-3 = tested on: PC-3
RPMI-8226 = tested on: RPMI-8226
RXF 393 = tested on: RXF 393
SF-268 = tested on: SF-268
SF-295 = tested on: SF-295
SF-539 = tested on: SF-539
SK-MEL-2 = tested on: SK-MEL-2
SK-MEL-5 = tested on: SK-MEL-5
SK-OV-3 = tested on: SK-OV-3
SN12C = tested on: SN12C
SNB-19 = tested on: SNB-19
SNB-75 = tested on: SNB-75
SR = tested on: SR
SW-620 = tested on: SW-620
TK-10 = tested on: TK-10
U-251 = tested on: U-251
UACC-257 = tested on: UACC-257
UACC-62 = tested on: UACC-62
UO-31 = tested on: UO-31
CAKI-1 = tested on: CAKI-1
HL-60 = tested on: HL-60
NCI-H226 = tested on: NCI-H226
NCI-H460 = tested on: NCI-H460
SK-MEL-28 = tested on: SK-MEL-28
T47D = tested on: T47D

Cc1nc(Cc2n[nH]c(C)n2)n[nH]1
GI50 (786-0): > 100 µM (inactive)
GI50 (A549): > 100 µM (inactive)
GI50 (ACHN): > 100 µM (inactive)
GI50 (BT-549): > 100 µM (inactive)
GI50 (CCRF-CEM): > 100 µM (inactive)
GI50 (COLO 205): > 100 µM (inactive)
GI50 (DU-145): > 100 µM (inactive)
GI50 (EKVX): > 100 µM (inactive)
GI50 (HCC 2998): > 100 µM (inactive)
GI50 (HCT-116): > 100 µM (inactive)
GI50 (HCT-15): > 100 µM
GI50 (HOP-62): > 100 µM (inactive)
GI50 (HOP-92): > 100 µM (inactive)
GI50 (HT-29): > 100 µM (inactive)
GI50 (IGROV-1): > 100 µM (inactive)
GI50 (K562): > 100 µM (inactive)
GI50 (KM12): > 100 µM (inactive)
GI50 (LOX IMVI): > 100 µM (inactive)
GI50 (M14): > 100 µM (inactive)
GI50 (MCF7): > 100 µM (inactive)
GI50 (MDA-MB-231): > 100 µM (inactive)
GI50 (MDA-MB-435): > 100 µM (inactive)
GI50 (MDA-N): > 100 µM (inactive)
GI50 (MOLT-4): > 100 µM (inactive)
GI50 (NCI-H23): > 100 µM (inactive)
GI50 (NCI-H522): > 100 µM (inactive)
GI50 (NCI/ADR-RES): > 100 µM (inactive)
GI50 (OVCAR-3): > 100 µM (inactive)
GI50 (OVCAR-4): > 100 µM (inactive)
GI50 (OVCAR-5): > 100 µM (inactive)
GI50 (OVCAR-8): > 100 µM (inactive)
GI50 (PC-3): > 100 µM (inactive)
GI50 (RPMI-8226): > 100 µM (inactive)
GI50 (RXF 393): > 100 µM (inactive)
GI50 (SF-268): > 100 µM (inactive)
GI50 (SF-295): > 100 µM (inactive)
GI50 (SF-539): > 100 µM (inactive)
GI50 (SK-MEL-2): > 100 µM (inactive)
GI50 (SK-MEL-5): > 100 µM (inactive)
GI50 (SK-OV-3): > 100 µM (inactive)
GI50 (SN12C): > 100 µM (inactive)
GI50 (SNB-19): > 100 µM (inactive)
GI50 (SNB-75): > 100 µM (inactive)
GI50 (SR): > 100 µM (inactive)
GI50 (SW-620): > 100 µM (inactive)
GI50 (TK-10): > 100 µM (inactive)
GI50 (U-251): > 100 µM (inactive)
GI50 (UACC-257): > 100 µM (inactive)
GI50 (UACC-62): > 100 µM (inactive)
GI50 (UO-31): > 100 µM (inactive)

O=C1Oc2ccccc2C(=O)/C1=C/N1C(=O)N/C(=C\c2cccc(O)c2)C1=O
GI50 (786-0): 74.8 µM (inactive)
GI50 (A549): > 100 µM (inactive)
GI50 (ACHN): 20.7 µM (inactive)
GI50 (BT-549): 21.8 µM (inactive)
GI50 (CAKI-1): 41 µM (inactive)
GI50 (COLO 205): > 100 µM (inactive)
GI50 (DU-145): 72.9 µM (inactive)
GI50 (EKVX): > 100 µM (inactive)
GI50 (HCC 2998): 55.7 µM (inactive)
GI50 (HCT-116): 76 µM (inactive)
GI50 (HCT-15): 61.9 µM
GI50 (HL-60): 6.87 µM (inactive)
GI50 (HOP-62): 69.7 µM (inactive)
GI50 (HOP-92): > 100 µM (inactive)
GI50 (HT-29): > 100 µM (inactive)
GI50 (IGROV-1): 31.3 µM (inactive)
GI50 (KM12): 62.5 µM (inactive)
GI50 (LOX IMVI): > 100 µM (inactive)
GI50 (M14): 83.8 µM (inactive)
GI50 (MCF7): > 100 µM (inactive)
GI50 (MDA-MB-231): 62.4 µM (inactive)
GI50 (MDA-MB-435): 54.2 µM (inactive)
GI50 (MDA-N): 63.8 µM (inactive)
GI50 (MOLT-4): 86.5 µM (inactive)
GI50 (NCI-H226): > 100 µM (inactive)
GI50 (NCI-H23): 84.9 µM (inactive)
GI50 (NCI-H460): 59 µM (inactive)
GI50 (NCI/ADR-RES): > 100 µM (inactive)
GI50 (OVCAR-3): > 100 µM (inactive)
GI50 (OVCAR-4): 85.9 µM (inactive)
GI50 (OVCAR-5): > 100 µM (inactive)
GI50 (OVCAR-8): 33.2 µM (inactive)
GI50 (PC-3): 54.3 µM (inactive)
GI50 (SF-295): 67.3 µM (inactive)
GI50 (SF-539): 99.5 µM (inactive)
GI50 (SK-MEL-28): > 100 µM (inactive)
GI50 (SK-MEL-2): 46.2 µM (inactive)
GI50 (SK-MEL-5): 70.8 µM (inactive)
GI50 (SK-OV-3): > 100 µM (inactive)
GI50 (SN12C): 69.5 µM (inactive)
GI50 (SNB-19): 45.3 µM (inactive)
GI50 (SNB-75): 8.36 µM (inactive)
GI50 (SW-620): 83.4 µM (inactive)
GI50 (T47D): 54.2 µM (inactive)
GI50 (TK-10): 46.1 µM (inactive)
GI50 (U-251): > 100 µM (inactive)
GI50 (UACC-257): > 100 µM (inactive)
GI50 (UO-31): 29.5 µM (inactive)
